Laboratory results reported in article PMC8366290, “Efficacy of a Novel Bi-Steric mTORC1 Inhibitor in Models of B-Cell Acute Lymphoblastic Leukemia” (Frontiers in Oncology, 2021).

Target: T1, mTOR (mTORC1) (Homo sapiens, UniProt P42345)
T1 construct: with raptor (mTORC1 complex)
Assay: MSD electrochemiluminescent assay of p4E-BP1 T37/T46 in SUP-B15 cells, with immunoblot
Format: cell-based

EC50: 2 nM
SMILES: CO[C@H]1C[C@@H]2CC[C@@H](C)[C@@](O)(O2)C(=O)C(=O)N2CCCC[C@H]2C(=O)O[C@H]([C@H](C)C[C@@H]2CC[C@@H](OCCCCc3cn(CCOCCOCCOCCOCCOCCOCCOCCOCCC(=O)NCCCCn4nc(-c5cc6cc(O)ccc6[nH]5)c5c(N)ncnc54)nn3)[C@H](OC)C2)CC(=O)[C@H](C)/C=C(\C)[C@@H](O)[C@@H](OC)C(=O)[C@H](C)C[C@H](C)/C=C/C=C/C=C/1C [RMC-4627]
